In PubChem BioAssay (NCI):
Where “and” joins values, the source holds several entries; their conditions need not be identical. Equal values may be shown once.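 Results reflect a 48-hour exposure of cells in 96-well plates to compound at five concentrations. Abbreviation: GI50, concentration required for 50% inhibition of growth. TGI marks complete inhibition of growth.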

How the values were obtained:
Assay in all cases: DTP human tumour cell line panel, 48 h
MDA-MB-468 breast = tested on: MDA-MB-468 breast
DU-145 prostate = tested on: DU-145 prostate
EKVX NSCLC = tested on: EKVX NSCLC
T-47D breast = tested on: T-47D breast
ACHN renal = tested on: ACHN renal
NCI-H226 lung = tested on: NCI-H226 lung
NCI/ADR-RES ovarian = tested on: NCI/ADR-RES ovarian
SF-295 CNS = tested on: SF-295 CNS
BT-549 breast = tested on: BT-549 breast
OVCAR-5 ovarian = tested on: OVCAR-5 ovarian
MALME-3M melanoma = tested on: MALME-3M melanoma
UACC-62 melanoma = tested on: UACC-62 melanoma
SR leukemia = tested on: SR leukemia
SK-OV-3 ovarian = tested on: SK-OV-3 ovarian
A549 NSCLC = tested on: A549 NSCLC
SN12C renal = tested on: SN12C renal
SK-MEL-5 melanoma = tested on: SK-MEL-5 melanoma
IGROV1 ovarian = tested on: IGROV1 ovarian
RXF 393 renal = tested on: RXF 393 renal
HCC-2998 colon = tested on: HCC-2998 colon
COLO 205 colon = tested on: COLO 205 colon
CCRF-CEM leukemia = tested on: CCRF-CEM leukemia
HL-60(TB) leukemia = tested on: HL-60(TB) leukemia
UACC-257 melanoma = tested on: UACC-257 melanoma
A498 renal = tested on: A498 renal
M14 melanoma = tested on: M14 melanoma
786-0 renal = tested on: 786-0 renal
MOLT-4 leukemia = tested on: MOLT-4 leukemia
K-562 leukemia = tested on: K-562 leukemia
RPMI-8226 leukemia = tested on: RPMI-8226 leukemia
TK-10 renal = tested on: TK-10 renal
NCI-H522 lung = tested on: NCI-H522 lung
LOX IMVI melanoma = tested on: LOX IMVI melanoma
UO-31 renal = tested on: UO-31 renal
CAKI-1 renal = tested on: CAKI-1 renal
HS 578T breast = tested on: HS 578T breast

Compound: COc1ccc2nc(C)cc(Nc3ccccc3O)c2c1
- GI50 (MDA-MB-468 breast): 13800 nM
- TGI (MDA-MB-468 breast): 45600 nM

Compound: O=Cc1ccc(O)c2ncccc12
- GI50 (MDA-MB-468 breast): 4140 nM
- TGI (MDA-MB-468 breast): > 100000 nM

Compound: O=C1/C(=C/c2ccc(Cl)cc2)COc2ccc(O)c(O)c21
- GI50 (MDA-MB-468 breast): 1430 nM
- TGI (MDA-MB-468 breast): 3220 nM

Compound: Cc1ccc(S(=O)(=O)Nc2nc3ccccc3nc2Nc2ccc3nsnc3c2)cc1
- GI50 (MDA-MB-468 breast): 3060 nM and 2660 nM
- TGI (MDA-MB-468 breast): 13500 nM and 9260 nM

Compound: COc1cccc2c(=O)c3c(sc12)c(NCCN(C)C)nc1ccccc13
- GI50 (MDA-MB-468 breast): 1500 nM
- TGI (MDA-MB-468 breast): 3150 nM

Compound: CCCN(CCC)C(=O)[C@H](CC)[C@@H]1CC[C@@H](C)[C@@H]([C@H](C)[C@@H](O)[C@@H](C)C(=O)[C@H](CC)C2O[C@]3(C=C[C@@H](O)[C@]4(CC[C@@](C)([C@H]5CC[C@](O)(CC)[C@H](C)O5)O4)O3)[C@H](C)C[C@@H]2C)O1 (some centres undefined)
- GI50 (MDA-MB-468 breast): 1720 nM
- TGI (MDA-MB-468 breast): 5330 nM

Compound: C=CC(=O)Nc1cccc(C)c1Nc1ncc2cc(-c3c(Cl)c(OC)cc(OC)c3Cl)ccc2n1
- GI50 (MDA-MB-468 breast): 1870 nM
- TGI (MDA-MB-468 breast): 6280 nM

Compound: Clc1ccc2c(c1)-c1ccccc1C1=NCCN12
- GI50 (MDA-MB-468 breast): 1540 nM
- TGI (MDA-MB-468 breast): 3150 nM

Compound: Cc1nn(-c2nc3ccccc3[nH]2)c2c1C(c1ccc3c(c1)OCO3)CC(=O)N2 (centres undefined)
- GI50 (MDA-MB-468 breast): 2320 nM
- TGI (MDA-MB-468 breast): 6760 nM

Compound: CC1=C(CCC=O)C2=C(C)C3(CC3)[C@@](C)(O)C(=O)C2=C1
- GI50 (DU-145 prostate): 37.6 nM
- TGI (DU-145 prostate): 845 nM
- GI50 (EKVX NSCLC): 210 nM
- TGI (EKVX NSCLC): 546 nM
- GI50 (T-47D breast): 108 nM
- TGI (T-47D breast): 882 nM
- GI50 (ACHN renal): 78.9 nM
- TGI (ACHN renal): 636 nM
- GI50 (NCI-H226 lung): 157 nM
- TGI (NCI-H226 lung): 587 nM
- GI50 (NCI/ADR-RES ovarian): 104 nM
- TGI (NCI/ADR-RES ovarian): 330 nM
- GI50 (MDA-MB-468 breast): 100 nM
- TGI (MDA-MB-468 breast): 239 nM
- GI50 (SF-295 CNS): 222 nM
- TGI (SF-295 CNS): 1110 nM
- GI50 (BT-549 breast): 35.8 nM
- TGI (BT-549 breast): 157 nM
- GI50 (OVCAR-5 ovarian): 65.6 nM
- TGI (OVCAR-5 ovarian): 416 nM
- GI50 (MALME-3M melanoma): 135 nM
- TGI (MALME-3M melanoma): 266 nM
- GI50 (UACC-62 melanoma): 158 nM
- TGI (UACC-62 melanoma): 315 nM
- GI50 (SR leukemia): 237 nM
- TGI (SR leukemia): 1120 nM
- GI50 (SK-OV-3 ovarian): 108 nM
- TGI (SK-OV-3 ovarian): 606 nM
- GI50 (A549 NSCLC): 159 nM
- TGI (A549 NSCLC): 4210 nM
- GI50 (SN12C renal): 167 nM
- TGI (SN12C renal): 755 nM
- GI50 (SK-MEL-5 melanoma): 94.6 nM
- TGI (SK-MEL-5 melanoma): 240 nM
- GI50 (IGROV1 ovarian): 62.5 nM
- TGI (IGROV1 ovarian): 312 nM
- GI50 (RXF 393 renal): 20.7 nM
- TGI (RXF 393 renal): 39.4 nM
- GI50 (HCC-2998 colon): 121 nM
- TGI (HCC-2998 colon): 261 nM
- GI50 (COLO 205 colon): 144 nM
- TGI (COLO 205 colon): 303 nM
- GI50 (CCRF-CEM leukemia): 756 nM
- TGI (CCRF-CEM leukemia): > 100000 nM
- GI50 (HL-60(TB) leukemia): 118 nM
- GI50 (UACC-257 melanoma): 208 nM
- TGI (UACC-257 melanoma): 464 nM
- GI50 (A498 renal): 269 nM
- TGI (A498 renal): 616 nM
- GI50 (M14 melanoma): 101 nM
- TGI (M14 melanoma): 254 nM
- GI50 (786-0 renal): 110 nM
- TGI (786-0 renal): 440 nM
- GI50 (MOLT-4 leukemia): 380 nM
- GI50 (K-562 leukemia): 330 nM
- GI50 (RPMI-8226 leukemia): 444 nM
- TGI (RPMI-8226 leukemia): > 100000 nM
- GI50 (TK-10 renal): 218 nM
- TGI (TK-10 renal): 1080 nM
- GI50 (NCI-H522 lung): 167 nM
- TGI (NCI-H522 lung): 369 nM
- GI50 (LOX IMVI melanoma): 140 nM
- TGI (LOX IMVI melanoma): 350 nM
- GI50 (UO-31 renal): 53.4 nM
- TGI (UO-31 renal): 263 nM
- GI50 (CAKI-1 renal): 123 nM
- TGI (CAKI-1 renal): 855 nM
- GI50 (HS 578T breast): 302 nM
- TGI (HS 578T breast): 1280 nM

Compound: COCCNC(=O)c1ccc(-c2nc3ccc4[nH]ncc4c3c3c2CCCC3)cc1
- GI50 (MDA-MB-468 breast): 2460 nM
- TGI (MDA-MB-468 breast): 50000 nM

Compound: COc1ccc(/C=C/C(=O)c2cc3c(N)c(C(=O)Nc4ccccc4)sc3nc2C)cc1
- GI50 (MDA-MB-468 breast): 179 nM
- TGI (MDA-MB-468 breast): > 41700 nM

Compound: O=C(/C=C/c1ccc(C(F)(F)F)cc1)c1ccc(Nc2nc(NCCO)nc(N3CCOCC3)n2)cc1
- GI50 (MDA-MB-468 breast): 1800 nM
- TGI (MDA-MB-468 breast): 3860 nM

Compound: CS(=O)(=O)Nc1cc(-c2ccc3ncnc(Nc4ccc5c(cnn5Cc5ccccc5F)c4)c3c2)cnc1Cl
- GI50 (MDA-MB-468 breast): 609 nM
- TGI (MDA-MB-468 breast): 2560 nM

Compound: COc1ccc2c(c1)OC(N)=C(C#N)C2c1ccc(F)cc1 (centres undefined)
- GI50 (MDA-MB-468 breast): 401 nM
- TGI (MDA-MB-468 breast): 33900 nM

Compound: CCCCCCCCCCCC[n+]1ccc(C(N)=O)cc1
- GI50 (MDA-MB-468 breast): 633 nM
- TGI (MDA-MB-468 breast): 2920 nM

Compound: C=C1C(=O)O[C@H]2[C@H]1CC/C(CNS(=O)(=O)c1cccc3ccccc13)=C\CC[C@@]1(C)O[C@@H]21
- GI50 (MDA-MB-468 breast): 1090 nM
- TGI (MDA-MB-468 breast): 3150 nM

Compound: N#CC1=C(N)Oc2c(sc3c(F)cccc23)C1c1ccc(F)cc1 (centres undefined)
- GI50 (MDA-MB-468 breast): 452 nM
- TGI (MDA-MB-468 breast): 15400 nM

Compound: CN1CCn2c(c(Sc3ccc(C(=O)NO)cc3)c3ccccc32)C1=O
- GI50 (MDA-MB-468 breast): 1430 nM
- TGI (MDA-MB-468 breast): 3250 nM

Compound: COc1ccc([C@H]2[C@H](O)C(=O)N2c2cc(OC)c(OC)c(OC)c2)cc1Cl
- GI50 (MDA-MB-468 breast): < 10 nM
- TGI (MDA-MB-468 breast): > 100000 nM

Compound: CCC(C)[C@H]1C(=O)O[C@H](C(C)C)C(=O)N(C)[C@@H](C(C)C)C(=O)O[C@H](C(C)C)C(=O)N(C)[C@@H](C(C)C)C(=O)O[C@H](C(C)C)C(=O)N1C (some centres undefined)
- GI50 (MDA-MB-468 breast): 542 nM
- TGI (MDA-MB-468 breast): > 10000 nM

Compound: OC(CNC1CCCC1)Cn1c2ccccc2c2ccccc21 (centres undefined)
- GI50 (MDA-MB-468 breast): 40700 nM
- TGI (MDA-MB-468 breast): > 100000 nM

Compound: N=C(N)c1ccc(-c2ccc(-c3cccs3)s2)nc1
- GI50 (MDA-MB-468 breast): 73.2 nM
- TGI (MDA-MB-468 breast): 779 nM

Compound: O=C(CCCCCCC(=O)Nc1ccc2c(c1)/C(=C/c1ccc[nH]1)C(=O)N2)NO
- GI50 (MDA-MB-468 breast): 187 nM
- TGI (MDA-MB-468 breast): 2090 nM

Compound: C=C1CC[C@@H]2[C@](C)(COC(C)=O)[C@H](OC(C)=O)CC[C@@]2(C)[C@@H]1C/C=C1/C(=O)OC[C@H]1OC(C)=O
- GI50 (MDA-MB-468 breast): 2040 nM
- TGI (MDA-MB-468 breast): 5690 nM

Compound: Oc1ccc(N=Nc2ccc(N=Nc3ccccc3)cc2)cc1
- GI50 (MDA-MB-468 breast): 4410 nM
- TGI (MDA-MB-468 breast): 19600 nM

Compound: COC(=O)[C@@]1(O)C[C@H]2O[C@]1(C)n1c3ccccc3c3c4c(c5c6ccccc6n2c5c31)C(=O)NC4
- GI50 (MDA-MB-468 breast): 1340 nM
- TGI (MDA-MB-468 breast): 3060 nM

Compound: NCCCCN(Cc1nc2ccccc2[nH]1)[C@H]1CCCc2cccnc21
- GI50 (MDA-MB-468 breast): 10400 nM
- TGI (MDA-MB-468 breast): 30800 nM

Compound: CCOC(=O)C#Cc1c(CC(=O)OCC)nnn1[C@H]1O[C@@H](CO)[C@@H]2OC(C)(C)O[C@@H]21
- GI50 (MDA-MB-468 breast): 2090 nM
- TGI (MDA-MB-468 breast): 4500 nM

Compound: OC(CNc1ccnc2cc(Cl)ccc12)CNC1CCCCC1 (centres undefined)
- GI50 (MDA-MB-468 breast): 1700 nM
- TGI (MDA-MB-468 breast): 3790 nM

Compound: O=C(N/N=C\c1ccc(N(CCCl)CCCl)cc1Cl)c1cccnc1
- GI50 (MDA-MB-468 breast): 45.8 nM
- TGI (MDA-MB-468 breast): 328 nM

Compound: CCCCCN(CCCCC)CC(O)c1cc2c(c3ccccc13)CCCC2 (centres undefined)
- GI50 (MDA-MB-468 breast): 4340 nM and 12200 nM
- TGI (MDA-MB-468 breast): 17200 nM and 28000 nM

Compound: CN(C)c1ccc(O)c2c1C[C@H]1C[C@H]3[C@H](N(C)C)C(=O)C(C(N)=O)=C(O)[C@@]3(O)C(=O)C1=C2O
- GI50 (MDA-MB-468 breast): 3240 nM
- TGI (MDA-MB-468 breast): 35100 nM

Compound: COC(=O)[C@@H](C)C[C@H](Cc1ccccc1)NC(=O)c1csc([C@@H](C[C@H](C(C)C)N(C)C(=O)C2(NC(=O)[C@H]3CCCCN3C)CC2)OC(C)=O)n1
- GI50 (MDA-MB-468 breast): 2.51 nM
